The source of these data is patent US8673981B2, “Phenylcyclobutylamide derivatives and their stereoisomers, the preparation processes and uses thereof” (priority 2008, dated 2014).

“Also recorded” adds a separate entry of the source.

For test [1], the system named is obese rat model. As to the kind of experiment: Weight-reducing pharmacodynamics study in the obese animal model (nutrient feed, 30 days). Type of test: in vivo, Sprague Dawley rats. More on the design: Average fat weight coefficient: unit not given here. Particulars: for Average added multiplier of body weight: (final - initial)/initial average body weight; for Average fat weight coefficient: average fat weight/final average body weight; for Average fat weight: intraperitoneal and perirenal fat; for Final average body weight: rats on nutrient feed. An excerpt:
The experimental Study of Weight-Reducing on Pharmacodynamics
Same numbers of male and female weanling Sprague Dawley rats (clean grade, 43.3±8.5 g) were obtained from Laboratory Animal Center (Chongqing medical university, China) (Certificate of Approval for Environmental Facilities: SYXK (Yu) 20020007; Certificate of Approval for animal: SCXK (Yu) 20020001). 1.2 Medicine and Preparation: racemic compound hydrochloride of example 7, optical isomers of examples 8, 9, 10 and 11, and positive control Sibutramine Hydrochloride were dissolved in 1% CMC-Na. 1.3 Test Instrument: TGL-16 table model high speed centrifuge (Shanghai Medical Instruments Factory NO. 6); KDC centrifuge (Huicheng Radio Factory, Guangzhou); Sartorius electronic balance (GERMANY); Medical refrigerator temperature (SANYO, JAPAN); thermostat water bath tank (Beijing Xicheng district medical apparatus factory); VXH-3 Mini Vortex Mixer (Shanghai Yuejin Medical Apparatus Facotry). 1.4 Nutrition Feed: the recipe of nutrition feed and basal feed are as follows:
Barley flour 20%, dehydrated vegetable 10%, bean flour 20%, corn flour 16%, yeast 1%, wheat bran 16%, fish meal 10%, bone meal 5%, salt 2%.
In the 100 g basal feed, milk powder 10 g, lard 10 g, egg 1 piece, fresh bean sprouts 250 g, oleum jecoris piscis concentratum 10 drops (including VA 1700 u, VD1700 u) were added.
2.1 Establishment and Grouping of Obese Animal Model
Weanling SD rats were randomly allocated to compound groups with large, middle, small dosages; positive control Sibutramine Hydrochloride groups with large, middle, small dosages; and obese animal model group and blank control group (n=5/group for male; n=5/group for female).
The experimental animals in blank control group were feed with normal feed, and animals in other groups were feed with nutrient feed. All animals have abundant feed for 24 h and can eat casually.
Experimental animals in each group were administrated with corresponding drugs once a day at 9 am for 30 days, with a dosage of 1 ml/100 g body weight. The dosage corresponds to clinical dosage of 10 mg/person/day for Sibutramine, which is transformed according to the equivalent dosage between human and rat. Large dosage group adopts 1.2 mg/kg; middle dosage group adopts 0.6 mg/kg, and small dosage group adopts 0.3 mg/kg. Obese animal model group: […] of 1% CMC-Na solution; blank control group: […] of 1% CMC-Na solution.
Measurements were taken of daily body weight; general status; hair; eye, mouth and nose secretions; feces, urinate and activities.
Intraperitoneal and perirenal fat were weighted, and the fat weight coefficient was calculated by body weight.

The conditions of test [2]: background statement; cited from earlier work.
[3] abbreviates: large dosage 1.2 mg/kg once a day for 30 days.
Setting [4] is: middle dosage 0.6 mg/kg once a day for 30 days.
Setting [5] is: small dosage 0.3 mg/kg once a day for 30 days.

In the case of `CC[C@@H](C)[C@@H](N)C(=O)N[C@H](CC(C)C)C1(c2ccc(Cl)cc2)CCC1.Cl` [Example 11, (2R,3R)-2-amino-N-{(R)-1-[1-(4-chlorophenyl)cyclobutyl]-3-methylbutyl}-3-methylvaleramide hydrochloride], in test [1] (setting [3]), the “Average added multiplier of body weight” value came out at 2.8, the “Average fat weight coefficient” value is given as 1.1, the Average fat weight is reported as 1.8 g and the “Final average body weight” value amounted to 162.4 g. Besides, in test [1] (setting [4]), the “Average added multiplier of body weight” value turned out to be 3.0, the “Average fat weight coefficient” value stood at 1.1, the Average fat weight came out at 1.9 g and the “Final average body weight” value was 173.2 g. Moreover, in test [1] (setting [5]), the “Average added multiplier of body weight” value is listed as 3.2, the “Average fat weight coefficient” value is given as 1.2, the Average fat weight came out at 2.1 g and the “Final average body weight” value is listed as 181.0 g.
In the case of `CCC(C)C(N)C(=O)NC(CC(C)C)C1(c2ccc(Cl)cc2)CCC1.Cl` (racemic) [Example 7, 2-amino-N-{1-[1-(4-chlorophenyl)cyclobutyl]-3-methylbutyl}-3-methylvaleramide hydrochloride], in test [1] (setting [3]), the “Average added multiplier of body weight” value is reported as 3.2, the “Average fat weight coefficient” value is 1.1, the Average fat weight turned out to be 2.0 g and the “Final average body weight” value was found to be 176.2 g. In test [1] (setting [4]), the “Average added multiplier of body weight” value is reported as 3.3, the “Average fat weight coefficient” value is 1.2, the Average fat weight was found to be 2.1 g and the “Final average body weight” value is 180.5 g. Also, in test [1] (setting [5]), the “Average added multiplier of body weight” value is 3.3, the “Average fat weight coefficient” value is reported as 1.2, the Average fat weight came out at 2.2 g and the “Final average body weight” value was determined as 186.9 g.
Turning to `CC(C)CC(N(C)C)C1(c2ccc(Cl)cc2)CCC1.Cl.O` (stereo not drawn) [Sibutramine, 1-(4-chlorophenyl)-N,N-dimethyl-α-(2-methylpropyl)cyclobutanemethanamine hydrochloride monohydrate, reference compound], in test [1] (setting [3]), the “Average added multiplier of body weight” value was 2.9, the “Average fat weight coefficient” value amounted to 1.1, the Average fat weight was 1.9 g and the “Final average body weight” value stood at 165.7 g. For the same compound, in test [1] (setting [4]), the “Average added multiplier of body weight” value worked out at 3.2, the “Average fat weight coefficient” value is given as 1.0, the Average fat weight is reported as 1.8 g and the “Final average body weight” value is 183.2 g. Besides, in test [1] (setting [5]), the “Average added multiplier of body weight” value came to 3.4, the “Average fat weight coefficient” value is on record as 1.0, the Average fat weight is listed as 1.9 g and the “Final average body weight” value came to 185.7 g. For the same compound, in test [2], the “Reduction of basal weight” value is 5%-10%.
`CC[C@@H](C)[C@@H](N)C(=O)N[C@@H](CC(C)C)C1(c2ccc(Cl)cc2)CCC1.Cl` [Example 10, (2R,3R)-2-amino-N-{(S)-1-[1-(4-chlorophenyl)cyclobutyl]-3-methylbutyl}-3-methylvaleramide hydrochloride]: in test [1] (setting [3]), the “Average added multiplier of body weight” value was determined as 3.0, the “Average fat weight coefficient” value worked out at 1.1, the Average fat weight was found to be 1.9 g and the “Final average body weight” value turned out to be 173.9 g. Besides, in test [1] (setting [4]), the “Average added multiplier of body weight” value is on record as 3.2, the “Average fat weight coefficient” value worked out at 1.2, the Average fat weight is on record as 2.0 g and the “Final average body weight” value is reported as 180.4 g. Also, in test [1] (setting [5]), the “Average added multiplier of body weight” value was 3.2, the “Average fat weight coefficient” value was determined as 1.2, the Average fat weight worked out at 2.1 g and the “Final average body weight” value is 185.0 g.
`CC[C@H](C)[C@H](N)C(=O)N[C@H](CC(C)C)C1(c2ccc(Cl)cc2)CCC1.Cl` [Example 9, (2S,3S)-2-amino-N-{(R)-1-[1-(4-chlorophenyl)cyclobutyl]-3-methylbutyl}-3-methylvaleramide hydrochloride]: in test [1] (setting [3]), the “Average added multiplier of body weight” value is reported as 2.6, the “Average fat weight coefficient” value came to 0.9, the Average fat weight is on record as 1.4 g and the “Final average body weight” value came to 156.1 g. Besides, in test [1] (setting [4]), the “Average added multiplier of body weight” value is reported as 2.7, the “Average fat weight coefficient” value amounted to 0.9, the Average fat weight was determined as 1.5 g and the “Final average body weight” value is reported as 167.9 g. Also, the “Decrease of body weight compared with Sibutramine” value in test [1] (obese rats, 30 days) was “decreased the body weight evidently”. Further, the “Effect of decreasing fat weight” value in test [1] (obese rats, 30 days, among treatment groups and versus Sibutramine, hydrochloride) is “the best; also recorded: significantly better effect than Sibutramine”. In addition, in test [1] (setting [5]), the “Average added multiplier of body weight” value amounted to 2.8, the “Average fat weight coefficient” value came to 0.9, the Average fat weight is on record as 1.5 g and the “Final average body weight” value is reported as 168.1 g.
For the compound `CC[C@H](C)[C@H](N)C(=O)N[C@@H](CC(C)C)C1(c2ccc(Cl)cc2)CCC1.Cl` [Example 8, (2S,3S)-2-amino-N-{(S)-1-[1-(4-chlorophenyl)cyclobutyl]-3-methylbutyl}-3-methylvaleramide hydrochloride], in test [1] (setting [3]), the “Average added multiplier of body weight” value is 3.0, the “Average fat weight coefficient” value turned out to be 1.0, the Average fat weight turned out to be 1.7 g and the “Final average body weight” value turned out to be 175.2 g. Further, in test [1] (setting [4]), the “Average added multiplier of body weight” value is 3.2, the “Average fat weight coefficient” value amounted to 1.0, the Average fat weight was 1.9 g and the “Final average body weight” value amounted to 185.6 g. Moreover, in test [1] (setting [5]), the “Average added multiplier of body weight” value came to 3.4, the “Average fat weight coefficient” value was 1.1, the Average fat weight stood at 2.0 g and the “Final average body weight” value came to 188.9 g.
